# How the values were obtained:
# Conditions in all cases: read-out: In absence of RNA / KM; no RNA; 100 mM NaCl, 10 mM Tris pH 7.5, 2 mM MgCl2
# [1] = test system: Prp43-Ntr1(51–102)
# [2] = test system: Prp43-Ntr1(51–110)
# [3] = test system: Prp43-Ntr1(59–110)
# [4] = test system: Prp43-Ntr1(62–110)
# [5] = test system: Prp43(1–745)-Ntr1(51–110)
# [6] = test system: Prp43-Ntr1(51–99)
compound,measurement,setting,value
Nc1ncnc2c1ncn2[C@@H]1O[C@H](COP(=O)(O)OP(=O)(O)OP(=O)(O)O)[C@@H](O)[C@H]1O [ATP],Km,[1],17.5 ± 2.43 µM
same,Km,[2],39.5 ± 3.92 µM
same,Km,[3],8.77 ± 1.09 µM
same,Km,[4],10.6 ± 2.18 µM
same,Km,[5],28.3 ± 4.61 µM
same,Km,[6],10.7 ± 1.38 µM

# From paper PMC3902948 (Nucleic Acids Research, 2013)
